Assay results published in patent publication US8598383B2, “Pharmaceutical composition for treating or preventing degenerative and inflammatory diseases” (Neurotech Pharmaceuticals Co., Ltd., priority 2006, dated 2013).

Key:
diabetic symptoms = conditions: mouse administered streptozotocin; cited from earlier work
DSS-induced colitis = test: 5% dextran sulfate sodium (DSS) inflammatory intestinal disease model; assay type: in vivo, mouse
Protocol: FIG. 17 is results showing efficacy through 5% dextran sulfate sodium (DSS) model, inflammatory intestinal disease animal model. After treatment of DSS, 10, 25 or 50 mg/kg of compound 18 suspended in 10% vehicle was orally administered. Sham means colon of normal mouse, DSS means colon mouse treated with 5% DSS. The others are pictures of colon of mice administered with compound 18 at indicated dose.
FIG. 20 is an efficacy test result of compound 18 using DSS. After treatment of DSS, compound 18 (25 mg/kg) suspended in 10% vehicle was orally administered. After that, bloody excrement by colon injury, diarrhea and the degree of dirtiness were evaluated as feces score.
5% dextran sulfate sodium (DSS) model was used as inflammatory intestinal disease animal model. 5% DSS mixed with water was orally administered. 5% DSS model causes damage to epithelial cell, and ulcer in left colon and the decrease of colon length are mainly observed in the model. This model is simple and reproductive, and can regulate the degree of inflammation according to dose. Therefore, this model is often used for evaluating drug candidates.
DSS is continuously administered in water bottle. The 2-hydroxybenzoic acid derivative was suspended in 10% vehicle, and orally administered.

[1] = tested on: collagen-induced arthritis; test: Collagen-induced arthritis model (arthritic index); assay type: in vivo, mouse; conditions: 25 mg/kg/day intraperitoneal
Protocol: FIG. 15 is results showing efficacy through arthritis animal model induced by collagen. 25 mg/kg of compound 2, 3 or 18, or methotrexate (control, MTX, 1 mg/kg/week) was intraperitoneally injected after administration of collagen.
FIG. 16 is results showing efficacy of compounds 6 and 11 through arthritis animal model induced by collagen. Collagen was intradermally injected two times with 2 week-interval. One week later, compound 6, compound 11 and methotrexate (control) were intraperitoneally injected. Then, the animals were observed everyday for 2-3 weeks, and results was evaluated by arthritis index.
To evaluate the efficacy of the 2-hydroxybenzoic acid derivative, collagen-induced arthritis model (rheumarthritis animal model) was used. Bovine type II collagen was mixed with complete Freund's adjuvant to make an emulsion, and the emulsion was intradermally injected into the origin site of 8˜10 week-old DBA/1LacJ mouse tail. Intradermal boosting was performed by the same method 2 weeks later. 25 mg/kg/day of compounds 2, 3 and 18, 1 mg/kg/week of methotrexate (comparative example) or 10% vehicle (control) were intraperitoneally injected one week after the second intradermal injection of collagen (FIG. 15). Pictures of foot edema of normal rat (sham), collagen-administered rat (collagen) and compound 18-administered rat (compound 18, 25 mg/kg/day injection) were shown in FIG. 14.
In addition, 50 mg/kg/day of compounds 6 and 11, and 5 mg/kg/2 days of methotrexate (comparative example) were intraperitoneally injected. Phosphate buffered saline was injected as control (FIG. 16). For 2˜3 weeks, the degree of arthritis was observed everyday, and the result was evaluated according to the below arthritic index using edema.
4 paws were evaluated as from 0 to 4 point, Total points: 16

BV2 microglia cell line = test: Suppressing effect on production of NO (LPS, Griess reagent); assay type: cell-based; conditions: Mus musculus, BV-2, LPS-treated BV2 microglia, 24 hours incubation
Protocol: Inhibiting effect of the 2-hydroxybenzoic acid derivative according to the present invention on NO, inflammatory factor intervening inflammation reaction was evaluated. BV2 microglia cell line was treated with lipopolysaccharide (LPS), a inflammation-inducing material of bacteria toxin, with inclusion of 10 uM, 30 uM or 100 uM of the present compound. After 24 hours of incubation, 50 ul of culture medium was collected in 96-well plate. Then, 50 ul of Griess reagent was added and incubated for 10 minutes at room temperature. The absorbance was evaluated by ELISA reader at 540 nm.

gastric mucous membrane = test: Safety test about induction of gastric mucous membrane damage; assay type: in vivo; conditions: oral, high dose; indomethacine, ibuprofen, celecoxib as control
Protocol: Test samples were orally administered at different doses to evaluate the degree of the gastric mucous membrane damage. Aspirin was used as control.
FIG. 2 is results showing degrees of the gastric mucous membrane damage. Test samples were orally administered at indicated doses. […] Indomethacine, ibuprofen and celecoxib were used as control.
Conventional NSAIDs have side effects causing damages to the gastric mucous membrane. Therefore, it was evaluated whether compound 2 having anti-inflammatory effect causes the gastric damage or not. 30, 100 or 300 mg/kg of aspirin was orally administered as control.

[2] = Single-dose toxicity test; assay type: in vivo; conditions: mouse, in vivo; single dose
Protocol: FIG. 32 is results of single dose toxicity testing of some 2-hydroxybenzoic acid derivatives according to the present invention.
Single-dose toxicities of the 2-hydroxybenzoic acid derivatives were evaluated.

[3] = tested on: cerulein-induced pancreatitis; test: Cerulein-induced acute pancreatitis model; assay type: in vivo, wistar rat
Protocol: FIG. 21 is efficacy test results using acute pancreatitis model induced by cerulein. 50 ug/kg of cerulein was administered. Two hours later, edema was induced by administration of LPS. A-C are picture results, and D is graphs showing the weight of pancreas.
FIG. 22 is efficacy test results using acute pancreatitis model induced by cerulein. 50 ug/kg of cerulein was administered. Two hours later, edema was induced by administration of LPS. 25 mg/kg of compound 18 was administered, and the changes of amylase and lipase, pancreatic digestive enzymes, were quantified.
Cerulein-induced pancreatitis model was used as acute pancreatitis model. Cerulein is an analog of cholecystokinin and a hormone causing secretion of pancreatic digestive enzyme in pancreas. Digestive enzyme was over-secreted into pancreas by intraperitoneal injection of cerulein (50 ug/kg). LPS was injected 2 hours later to induce edema. When cerulein was administered, massive edema was observed on the basis of spleen. […] D of FIG. 21 is results showing the pancreas weight increased by the edema.
The model excessively increases digestive enzymes, which are released into blood. That is, the decrease of digestive enzyme in blood can be an indirect evidence for sample to reduce pancreatitis.
To confirm the protecting effect on inflammation, the levels of TNF-α and […], inflammatory cytokines, were evaluated. PGE2, the product of COX-2 (inflammation enzyme), were evaluated by ELISA method.

atherosclerosis = conditions: early formation of atherosclerotic lesion; cited from earlier work

Structure (SMILES): C[C@@H](O)CCCCn1c(=O)c2c(ncn2C)n(C)c1=O [Lisofylline]
- reduction of diabetic symptoms (diabetic symptoms): 50%

Structure (SMILES): CC(=O)Oc1ccc(NCCc2ccc(C(F)(F)F)cc2)cc1C(=O)O [compound 18, 2-acetoxy-5-[2-(4-trifluoromethyl-phenyl)-ethylamino]-benzoic acid]
- length and width of colon (DSS-induced colitis; oral, 10, 25 or 50 mg/kg in 10% vehicle): significantly changed the length and width of the colon
- feces score (bloody excrement, diarrhea, dirtiness) (DSS-induced colitis; vs DSS only, compound 18 25 mg/kg oral): significantly decreased feces score
- arthritic index [1]: apparent reducing effect
- IC50 (BV2 microglia cell line): 21.6 µM
- gastric mucous membrane damage (gastric mucous membrane): did not cause damage to gastric mucous membrane
- LD50 [2]: > 3000 mg/kg
- amylase and lipase in plasma ([3]; 25 mg/kg): significantly reduced the increase
- pancreas weight ([3]; 25 mg/kg): significantly reduced pancreas weight
- pancreatic edema ([3]; 25 mg/kg): the edema was decreased
- TNF-α, IL-1β and PGE2 (inflammation markers) ([3]; ELISA): significantly reduced these inflammation markers

Structure (SMILES): COc1ccc2c(c1)c(CC(=O)O)c(C)n2C(=O)c1ccc(Cl)cc1 [indomethacine]
- reduction of atherosclerosis (atherosclerosis): 38-51%
